PubChem BioAssay AID624129 (Sanford-Burnham Center for Chemical Genomics, 2012)
pIC50: −log10 of the molar value. Calls of active or inactive are those of the source. No rule for the calls is given here.

Columns and labels:
Assay in all cases: potency against CXCR6 with APJ panel – cell-based, beta-arrestin, DiscoveRx, uHTS hits, dose response (AID 624129)
[1] = molecular target: Beta-galactosidase (Escherichia coli) (UniProt Q8VNN2); settings: CXCR6 beta-arrestin (DiscoveRx) antagonist cell assay, b-galactosidase
Beta-galactosidase (Escherichia coli), sequence (Q8VNN2 whole entry, looked up): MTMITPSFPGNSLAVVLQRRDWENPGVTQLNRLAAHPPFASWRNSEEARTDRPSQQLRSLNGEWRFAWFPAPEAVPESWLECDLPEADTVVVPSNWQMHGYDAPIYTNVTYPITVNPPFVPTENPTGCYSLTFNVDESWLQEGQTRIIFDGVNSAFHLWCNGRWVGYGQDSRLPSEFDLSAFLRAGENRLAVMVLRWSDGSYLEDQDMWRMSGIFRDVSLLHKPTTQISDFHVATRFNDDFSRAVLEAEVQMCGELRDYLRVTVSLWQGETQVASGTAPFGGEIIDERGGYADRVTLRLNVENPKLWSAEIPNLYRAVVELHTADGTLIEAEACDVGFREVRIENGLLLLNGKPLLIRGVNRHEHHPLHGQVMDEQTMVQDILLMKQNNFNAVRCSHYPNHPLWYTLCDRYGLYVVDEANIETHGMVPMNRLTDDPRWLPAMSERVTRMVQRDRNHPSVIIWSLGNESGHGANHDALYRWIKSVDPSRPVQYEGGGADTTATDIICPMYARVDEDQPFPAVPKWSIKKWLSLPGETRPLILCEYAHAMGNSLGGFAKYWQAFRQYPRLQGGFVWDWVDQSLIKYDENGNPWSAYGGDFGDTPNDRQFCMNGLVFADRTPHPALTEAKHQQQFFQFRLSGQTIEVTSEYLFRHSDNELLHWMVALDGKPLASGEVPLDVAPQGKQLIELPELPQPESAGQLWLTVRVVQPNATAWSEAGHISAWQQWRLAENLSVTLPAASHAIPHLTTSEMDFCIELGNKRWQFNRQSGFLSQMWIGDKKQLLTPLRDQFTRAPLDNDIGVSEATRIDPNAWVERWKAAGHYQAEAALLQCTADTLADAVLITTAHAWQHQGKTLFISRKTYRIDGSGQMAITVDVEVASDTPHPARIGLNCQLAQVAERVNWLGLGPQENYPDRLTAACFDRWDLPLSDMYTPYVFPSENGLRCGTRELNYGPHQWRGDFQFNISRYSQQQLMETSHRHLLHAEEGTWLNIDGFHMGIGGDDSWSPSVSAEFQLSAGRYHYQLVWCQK

[2] = molecular target: C-C chemokine receptor type 6 (Homo sapiens) (UniProt P51684); settings: CXCR6 beta-arrestin (DiscoveRx) antagonist cell assay
[3] = molecular target: C-X-C chemokine receptor type 6 (Homo sapiens) (UniProt O00574); settings: CXCR6 beta-arrestin (DiscoveRx) antagonist cell assay; for inhibition: CXCR6, run 1, dose range 2, at 80 µM (top of the series)
C-X-C chemokine receptor type 6 (Homo sapiens), sequence (O00574 whole entry, looked up): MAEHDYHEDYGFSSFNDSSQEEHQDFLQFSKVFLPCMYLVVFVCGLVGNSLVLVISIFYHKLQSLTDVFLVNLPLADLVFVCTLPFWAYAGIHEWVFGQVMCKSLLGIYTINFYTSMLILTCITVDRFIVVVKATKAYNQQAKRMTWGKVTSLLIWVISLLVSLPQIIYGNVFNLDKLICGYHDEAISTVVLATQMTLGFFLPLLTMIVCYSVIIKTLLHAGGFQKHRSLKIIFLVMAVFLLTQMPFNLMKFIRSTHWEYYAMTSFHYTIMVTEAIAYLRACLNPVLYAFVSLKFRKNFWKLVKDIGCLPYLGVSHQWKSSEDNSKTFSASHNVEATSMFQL

[4] = molecular target: Apelin receptor (Homo sapiens) (UniProt P35414); settings: CXCR6 beta-arrestin (DiscoveRx) antagonist cell assay, APJ
[5] = dose range 1, mean IC50 across replicates
[6] = CCR6, dose range 1, mean IC50 across replicates
[7] = CXCR6, dose range 1, mean IC50 across replicates

Row | IC50 ([1]; dose range 1) | pIC50 [1, 5] | pIC50 ([2]; CCR6, dose range 1) | pIC50 [2, 6] | pIC50 ([2]; CCR6, run 2, dose range 1) | pIC50 ([3]; CXCR6, dose range 1) | pIC50 [3, 7] | pIC50 ([3]; CXCR6, run 1, dose range 2) | pIC50 ([3]; CXCR6, run 2, dose range 1) | pIC50 ([3]; CXCR6, run 2, dose range 2) | pIC50 ([4]; dose range 1) | pIC50 [4, 5] | pIC50 ([4]; run 2, dose range 1) | pIC50 ([4]; run 3, dose range 1) | pIC50 ([1]; dose range 1) | IC50 ([3]; CXCR6, dose range 1) | inhibition [3] | Compound
1 | > 80 µM (inactive) | < 4.10 | 5.22 | 5.17 | 5.13 | 5.15 | 5.26 | 5.44 | 5.16 | 5.37 | 5.17 | 5.11 | 5.06 | 5.11 | – | – | – | NC(=S)N/N=C/c1ncc(C(F)(F)F)cc1Cl
2 | – | 5.07 | 5.07 | 5.04 | 5.00 | – | 4.91 | 4.96 | 4.85 | 5.12 | 4.87 | 4.88 | 4.80 | 5.00 | 5.07 | inactive | – | COc1ccc(C)c(-n2c(=O)n(Cc3ccccc3)c(=O)c3[nH]cnc32)c1
3 | > 80 µM (inactive) | < 4.10 | 5.46 | 5.41 | 5.37 | 5.37 | 5.33 | 5.30 | 5.32 | 5.33 | 5.13 | 5.22 | 5.33 | 5.22 | – | – | – | CCC(=O)OCCNc1cc(Sc2nccn2C)c2nonc2c1[N+](=O)[O-]
4 | > 80 µM (inactive) | < 4.10 | 4.95 | 4.91 | 4.87 | – | 4.78 | – | 4.80 | – | 4.70 | 4.68 | 4.72 | 4.62 | – | inactive | 106% | Cc1ccc2oc(/N=C(\N)NC(=O)C(C)(C)C)nc2c1
5 | > 80 µM (inactive) | < 4.10 | 5.66 | 5.59 | 5.52 | 5.35 | 5.45 | – | 5.59 | – | 5.33 | 5.30 | 5.26 | 5.31 | – | – | 129% | Cc1ccnc(N2C(=O)c3cccc4c([N+](=O)[O-])ccc(c34)C2=O)c1
6 | – | 4.39 | 4.96 | 4.98 | 5.00 | – | 4.92 | 5.11 | 4.84 | 4.85 | 4.91 | 4.90 | 4.77 | 5.07 | 4.39 | inactive | – | FC(F)(F)c1cnc(NNC(=S)Nc2ccc(Cl)cc2)c(Cl)c1
7 | > 80 µM (inactive) | < 4.10 | 5.41 | 5.40 | 5.39 | 5.25 | 5.25 | 5.27 | 5.37 | 5.15 | 5.09 | 5.15 | 5.16 | 5.21 | – | – | – | COc1ccc(C[C@@H]2OC3(C=CC(=O)C=C3)O[C@H]2Cc2ccc(OC)cc2)cc1
8 | > 80 µM (inactive) | < 4.10 | 5.31 | 5.34 | 5.36 | 5.31 | 5.30 | 5.25 | 5.30 | 5.34 | 5.08 | 5.21 | 5.35 | 5.23 | – | – | – | CCCC(=O)OCCNc1cc(Sc2nccn2C)c2nonc2c1[N+](=O)[O-]
9 | > 80 µM (inactive) | < 4.10 | 5.04 | 4.99 | 4.94 | – | 4.94 | 5.39 | 4.75 | 5.30 | 4.86 | 4.63 | 4.66 | 4.45 | – | inactive | – | CC(C)N=C1CCCC1C(=S)SSC(=S)C1CCCC1=NC(C)C (centres undefined)
10 | > 80 µM (inactive) | < 4.10 | 5.43 | 5.23 | 5.10 | 5.38 | 5.27 | 5.29 | 5.28 | 5.16 | 5.19 | 5.08 | 4.99 | 5.07 | – | – | – | COc1ccc(OC)c(/C=C/c2ccc3cccc(O)c3n2)c1
11 | > 80 µM (inactive) | < 4.10 | – | < 4.10 | < 4.10 | – | < 4.10 | – | < 4.10 | – | – | < 4.10 | < 4.10 | < 4.10 | – | > 80 µM (inactive) | -28% | CCOc1ccc(NC(=O)CN(C)S(=O)(=O)c2cccs2)cc1
